# In patent US20110245351A1, “MEDICAL ADHESIVE FOR SURGERY” (BAYER MATERIALSCIENCE AG, priority 2008, published 2011):
# Assay: Processing / curing time of the adhesive from prepolymer A-1 and secondary diamine
# Assay type: physicochemical
# Conditions: 1 g prepolymer A-1 with equivalent quantity of diamine, applied thinly onto tissue
# Description: 1 g of the prepolymer A-1 were stirred well in a beaker with an equivalent quantity of dimethyl 2,2′-(pentane-1,5-diylbis(azandiyl))bis(4-methylpentanoate). Directly after this, the reaction mixture was applied thinly onto the tissue to be glued. […] After 2 mins, the surface of the adhesive was no longer tacky.
SMILES,Curing to a transparent film [min],Time after which surface of the adhesive was no longer tacky [min]
"COC(=O)C(CC(C)C)NCCCCCNC(CC(C)C)C(=O)OC (stereo not drawn) [Example 2, Dimethyl 2,2′-(pentan-1,5-diylbis(azandiyl))bis(4-methylpentanoate)]",≤ 1,2

# Same assay, conditions: diamine as curing agent for prepolymer A-1
row,SMILES,Processing time [min]
1,CCOC(=O)C(C)NCCCCNC(C)C(=O)OCC (stereo not drawn),0.7
2,CCOC(=O)C(C)NCCCCCNC(C)C(=O)OCC (stereo not drawn),0.55
3,COC(=O)C(Cc1ccccc1)NCCCNC(Cc1ccccc1)C(=O)OC (stereo not drawn),4
4,COC(=O)C(Cc1ccccc1)NCCCCCCNC(Cc1ccccc1)C(=O)OC (stereo not drawn),4
5,CCC(C)C(NCCCNC(C(=O)OC)C(C)CC)C(=O)OC (stereo not drawn),3
6,COC(=O)C(NCCCNC(C(=O)OC)C(C)C)C(C)C (stereo not drawn),4
7,COC(=O)C(CC(C)C)NCCCCCNC(CC(C)C)C(=O)OC (stereo not drawn) [drawing 17],4
